Results reported in ChEMBL document CHEMBL1201862, “PubChem BioAssay data set” (2004).
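Five compound concentrations were applied to cells in 96-well plates for 48 hours; endpoints were derived by simple linear interpolation of the resulting dose-response curve. GI50 marks 50% less growth.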 The source made the active and inactive calls. Rule as the data show it: active = GI50 up to about 1.1 µM and inactive = higher.

Assays:
Experiment in all cases: NCI-60 cell line screen, 48 h
786-0 = system: 786-0
A498 = system: A498
A549 = system: A549
ACHN = system: ACHN
CAKI-1 = system: CAKI-1
CCRF-CEM = system: CCRF-CEM
COLO 205 = system: COLO 205
DLD-1 = system: DLD-1
DMS-114 = system: DMS-114
DMS-273 = system: DMS-273
HCC 2998 = system: HCC 2998
HCT-116 = system: HCT-116
HCT-15 = system: HCT-15
HL-60 = system: HL-60
HOP-18 = system: HOP-18
HOP-62 = system: HOP-62
HT-29 = system: HT-29
IGROV-1 = system: IGROV-1
K562 = system: K562
KM-20L2 = system: KM-20L2
KM12 = system: KM12
LOX IMVI = system: LOX IMVI
LXFL 529 = system: LXFL 529
M14 = system: M14
M19-MEL = system: M19-MEL
MOLT-4 = system: MOLT-4
Malme-3M = system: Malme-3M
NCI-H226 = system: NCI-H226
NCI-H23 = system: NCI-H23
NCI-H460 = system: NCI-H460
NCI-H522 = system: NCI-H522
OVCAR-3 = system: OVCAR-3
OVCAR-4 = system: OVCAR-4
OVCAR-5 = system: OVCAR-5
OVCAR-8 = system: OVCAR-8
RPMI-8226 = system: RPMI-8226
RXF 393 = system: RXF 393
SF-268 = system: SF-268
SF-295 = system: SF-295
SF-539 = system: SF-539
SK-MEL-28 = system: SK-MEL-28
SK-MEL-2 = system: SK-MEL-2
SK-MEL-5 = system: SK-MEL-5
SK-OV-3 = system: SK-OV-3
SN12C = system: SN12C
SNB-19 = system: SNB-19
SNB-75 = system: SNB-75
SNB-78 = system: SNB-78
SW-620 = system: SW-620
TK-10 = system: TK-10
U-251 = system: U-251
UACC-257 = system: UACC-257
UACC-62 = system: UACC-62
UO-31 = system: UO-31
EKVX = system: EKVX
SR = system: SR

COc1cccc2c1C1(O)C2CCCC12OCCCO2 (stereo not given)
GI50 (786-0): > 100 µM (inactive)
GI50 (A498): > 100 µM (inactive)
GI50 (A549): > 100 µM (inactive)
GI50 (ACHN): > 100 µM (inactive)
GI50 (CAKI-1): > 100 µM (inactive)
GI50 (CCRF-CEM): > 100 µM (inactive)
GI50 (COLO 205): > 100 µM (inactive)
GI50 (DLD-1): > 100 µM (inactive)
GI50 (DMS-114): > 100 µM (inactive)
GI50 (DMS-273): > 100 µM (inactive)
GI50 (HCC 2998): > 100 µM (inactive)
GI50 (HCT-116): > 100 µM (inactive)
GI50 (HCT-15): > 100 µM
GI50 (HL-60): > 100 µM (inactive)
GI50 (HOP-18): > 100 µM (inactive)
GI50 (HOP-62): > 100 µM (inactive)
GI50 (HT-29): > 100 µM (inactive)
GI50 (IGROV-1): > 100 µM (inactive)
GI50 (K562): > 100 µM (inactive)
GI50 (KM-20L2): > 100 µM (inactive)
GI50 (KM12): > 100 µM (inactive)
GI50 (LOX IMVI): > 100 µM (inactive)
GI50 (LXFL 529): > 100 µM (inactive)
GI50 (M14): > 100 µM (inactive)
GI50 (M19-MEL): > 100 µM (inactive)
GI50 (MOLT-4): > 100 µM (inactive)
GI50 (Malme-3M): > 100 µM (inactive)
GI50 (NCI-H226): > 100 µM (inactive)
GI50 (NCI-H23): > 100 µM (inactive)
GI50 (NCI-H460): > 100 µM (inactive)
GI50 (NCI-H522): > 100 µM (inactive)
GI50 (OVCAR-3): > 100 µM (inactive)
GI50 (OVCAR-4): > 100 µM (inactive)
GI50 (OVCAR-5): > 100 µM (inactive)
GI50 (OVCAR-8): > 100 µM (inactive)
GI50 (RPMI-8226): > 100 µM (inactive)
GI50 (RXF 393): > 100 µM (inactive)
GI50 (SF-268): > 100 µM (inactive)
GI50 (SF-295): > 100 µM (inactive)
GI50 (SF-539): > 100 µM (inactive)
GI50 (SK-MEL-28): > 100 µM (inactive)
GI50 (SK-MEL-2): > 100 µM (inactive)
GI50 (SK-MEL-5): > 100 µM (inactive)
GI50 (SK-OV-3): > 100 µM (inactive)
GI50 (SN12C): > 100 µM (inactive)
GI50 (SNB-19): > 100 µM (inactive)
GI50 (SNB-75): > 100 µM (inactive)
GI50 (SNB-78): > 100 µM (inactive)
GI50 (SW-620): > 100 µM (inactive)
GI50 (TK-10): > 100 µM (inactive)
GI50 (U-251): > 100 µM (inactive)
GI50 (UACC-257): > 100 µM (inactive)
GI50 (UACC-62): > 100 µM (inactive)
GI50 (UO-31): > 100 µM (inactive)

CC1(C)COC(c2c(-c3ccccc3)noc2C[S+]([O-])c2ccccc2)=N1 (stereo not given)
GI50 (786-0): 76.6 µM (inactive)
GI50 (A498): 20.3 µM (inactive)
GI50 (A549): 46 µM (inactive)
GI50 (ACHN): 40 µM (inactive)
GI50 (CAKI-1): 61.5 µM (inactive)
GI50 (CCRF-CEM): 29.2 µM (inactive)
GI50 (COLO 205): 40.4 µM (inactive)
GI50 (DLD-1): > 100 µM (inactive)
GI50 (DMS-114): 21.9 µM (inactive)
GI50 (DMS-273): 31.2 µM (inactive)
GI50 (EKVX): 96.6 µM (inactive)
GI50 (HCC 2998): 32.3 µM (inactive)
GI50 (HCT-116): 28.2 µM (inactive)
GI50 (HCT-15): 27.4 µM
GI50 (HL-60): 23.9 µM (inactive)
GI50 (HOP-18): 24.9 µM (inactive)
GI50 (HOP-62): 31.4 µM (inactive)
GI50 (HT-29): 38.5 µM (inactive)
GI50 (IGROV-1): 88.5 µM (inactive)
GI50 (K562): 40.9 µM (inactive)
GI50 (KM-20L2): 46.3 µM (inactive)
GI50 (KM12): 36.1 µM (inactive)
GI50 (LOX IMVI): 41 µM (inactive)
GI50 (LXFL 529): 30.2 µM (inactive)
GI50 (M14): 48.9 µM (inactive)
GI50 (M19-MEL): 45.1 µM (inactive)
GI50 (MOLT-4): 22.5 µM (inactive)
GI50 (Malme-3M): 46.1 µM (inactive)
GI50 (NCI-H226): 30.3 µM (inactive)
GI50 (NCI-H23): 32.3 µM (inactive)
GI50 (NCI-H460): 28.3 µM (inactive)
GI50 (NCI-H522): 36.1 µM (inactive)
GI50 (OVCAR-3): > 100 µM (inactive)
GI50 (OVCAR-4): 62.8 µM (inactive)
GI50 (OVCAR-5): > 100 µM (inactive)
GI50 (OVCAR-8): 37.3 µM (inactive)
GI50 (RPMI-8226): 22.1 µM (inactive)
GI50 (RXF 393): > 100 µM (inactive)
GI50 (SF-268): 19.9 µM (inactive)
GI50 (SF-295): 34.6 µM (inactive)
GI50 (SF-539): 59.6 µM (inactive)
GI50 (SK-MEL-28): 33.1 µM (inactive)
GI50 (SK-MEL-2): 24.5 µM (inactive)
GI50 (SK-MEL-5): 38.3 µM (inactive)
GI50 (SK-OV-3): 72.3 µM (inactive)
GI50 (SN12C): 31.3 µM (inactive)
GI50 (SNB-19): > 100 µM (inactive)
GI50 (SNB-75): 29.6 µM (inactive)
GI50 (SNB-78): 7.48 µM (inactive)
GI50 (SR): 29.1 µM (inactive)
GI50 (SW-620): > 100 µM (inactive)
GI50 (TK-10): > 100 µM (inactive)
GI50 (U-251): 32.5 µM (inactive)
GI50 (UACC-257): 52.1 µM (inactive)
GI50 (UACC-62): 20.7 µM (inactive)
GI50 (UO-31): 29.2 µM (inactive)
